Assay results taken from patent US7442392B2, “Pesticides” (priority 2004, dated 2008).

Tested on: root-knot nematodes (Meloidogyne sp), some Pratylenchus sp.
Experiment: Water screen, plant parasitic nematodes
Type: in vivo
Method: 100 microliters containing nematodes were pipetted into 2.5 cm Petri dishes. The nematodes used were principally root-knot nematodes (Meloidogyne sp) but some initial observations were also made on some Pratylenchus sp. and free-living species (non-plant parasites). 900 microliters of Loquat extract, or 500 microliters of Loquat extract plus 400 microliters of water, were added to the nematodes to give concentrations of 90 or 50% of the original Loquat extract. Total added volume was therefore 1 ml.
Controls were nematodes from the same source placed in tap water.
Following application of the Loquat or amygdalin solution, observations were made after 10 minutes, the next day, and after 5 days.

N#C[C@H](O[C@@H]1O[C@H](CO[C@@H]2O[C@H](CO)[C@@H](O)[C@H](O)[C@H]2O)[C@@H](O)[C@H](O)[C@H]1O)c1ccccc1 [amygdalin]
Activity of nematodes (10 minutes, both concentrations (70 mg or 400 mg in 50 ml water)): still active | Activity of nematodes (5 days later, both amygdalin treatments): still active | Activity of amygdalin itself (conclusion) (in vivo): not active per se | Activity of nematodes (next day, both amygdalin treatments): active
